According to US20230025807A1 (priority 2019, published 2023):
pIC50: −log10 of the molar value. Structures can show the parent of a compound that is named as a salt.

target: T1, Human CD38 (Homo sapiens, UniProt P28907); assay: biochemical; conditions: not given
T1 construct: purchased BPS Bioscience 79287
T1 sequence (P28907 1-300): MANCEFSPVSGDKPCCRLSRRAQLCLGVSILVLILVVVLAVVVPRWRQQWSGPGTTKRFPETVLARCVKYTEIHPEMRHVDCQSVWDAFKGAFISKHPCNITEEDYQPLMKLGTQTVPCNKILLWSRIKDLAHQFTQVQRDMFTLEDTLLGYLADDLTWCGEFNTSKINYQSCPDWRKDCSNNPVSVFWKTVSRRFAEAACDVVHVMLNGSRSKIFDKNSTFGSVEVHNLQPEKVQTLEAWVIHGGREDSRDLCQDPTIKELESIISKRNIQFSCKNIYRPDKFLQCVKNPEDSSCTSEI
Procedure: CD38 hydrolase buffer (4×) was thawed on ice and 1×CD38 hydrolase buffer was prepared by diluting 4×CD38 hydrolase buffer with water. CD38 hydrolase enzyme was diluted to […] with 1×CD38 hydrolase buffer (10 ng/well). Master mix was prepared by mixing equal volumes of water and CD38 hydrolase buffer (4×) and 10 μl of the mix was added to all the wells. Following master mix addition, 10 μl of the inhibitors and 20 μl of CD38 hydrolase enzyme were added to the wells. For wells designated blank, 10 μl and 20 μl of 1×CD38 hydrolase buffer was added respectively in place of CD38 enzyme and inhibitors. The plate was covered and incubated 30 min at room temperature with slow shaking at 400 rpm. After 30 min incubation, the plate was removed and 10 μl of diluted ε-NAD substrate was added to all the wells. The plate is incubated for 10 min, spun at 1200 rpm for 30 secs to remove bubbles and read in Tecan Spark using a fluorometer setting of excitation 300 nm and emission 410 nm. The reading for the blank was subtracted from all the values. IC50 for the test compounds were determined by using Graphpad prism software v7.0.

| Compound | pIC50 |
| --- | --- |
| O=C(NCc1c(F)cccc1C(F)(F)F)c1cc(-c2cncs2)cc2[nH]ccc12 [Example 25, N-(2-fluoro-6-(trifluoromethyl)benzyl)-6-(thiazol-5-yl)-1H-indole-4-carboxamide] | 7.11 |
| O=C(NC1CCS(=O)(=O)CC1)c1cc(-c2cncs2)cc2[nH]ccc12 [Example 24, N-(1,1-dioxidotetrahydro-2H-thiopyran-4-yl)-6-(thiazol-5-yl)-1H-indole-4-carboxamide] | 6.70 |
| O=C(NCC1CCOCC1)c1cc(-c2cncs2)cc2[nH]ccc12 [Example 27, N-((tetrahydro-2H-pyran-4-yl)methyl)-6-(thiazol-5-yl)-1H-indole-4-carboxamide] | 5.43 |
| COCCO[C@H]1CC[C@H](NC(=O)c2cc(-n3ccnc3)cc3[nH]cc(C#N)c23)CC1 [Example 56, 3-cyano-6-(1H-imidazol-1-yl)-N-((1r,4r)-4-(2-methoxyethoxy)cyclohexyl)-1H-indole-4-carboxamide] | 8.01 |
| COCCO[C@H]1CC[C@H](NC(=O)c2cc(-n3ccnc3)cc3c(CN)c[nH]c23)CC1 [Example 17, 3-(aminomethyl)-5-(1H-imidazol-1-yl)-N-((1r,4r)-4-(2-methoxyethoxy)cyclohexyl)-1H-indole-7-carboxamide] | 6.05 |
| COCCO[C@H]1CC[C@H](NC(=O)c2cc(-n3ccnc3)cc3c(CN(C)C)c[nH]c23)CC1 [Example 16, 3-((dimethylamino)methyl)-5-(1H-imidazol-1-yl)-N-((1r,4r)-4-(2-methoxyethoxy)cyclohexyl)-1H-indole-7-carboxamide] | 6.10 |
| COCCO[C@H]1CC[C@H](NC(=O)c2cc(-n3cccn3)cc3cc[nH]c23)CC1 [Example 2, N-((1r,4r)-4-(2-methoxyethoxy)cyclohexyl)-5-(1H-pyrazol-1-yl)-1H-indole-7-carboxamide] | < 4.00 |
| COCCO[C@H]1CC[C@H](NC(=O)c2cc(-c3cncs3)cc3c(C#N)c[nH]c23)CC1 [Example 20, 3-cyano-N-((1r,4r)-4-(2-methoxyethoxy)cyclohexyl)-5-(thiazol-5-yl)-1H-indole-7-carboxamide] | 7.72 |
| O=C(NC1CCCCC1)c1cc(-c2cncs2)cc2[nH]ccc12 [Example 47, N-cyclohexyl-6-(thiazol-5-yl)-1H-indole-4-carboxamide] | 6.86 |
| COCCO[C@H]1CC[C@H](NC(=O)c2cc(-c3cncs3)cc3[nH]ccc23)C1 (racemic) [Example 34, N-(Trans-3-(2-methoxyethoxy)cyclopentyl)-6-(thiazol-5-yl)-1H-indole-4-carboxamide] | 6.58 |
| CC(C)(O)CNC(=O)c1cc(-c2cncs2)cc2[nH]ccc12 [Example 43, N-(2-hydroxy-2-methylpropyl)-6-(thiazol-5-yl)-1H-indole-4-carboxamide] | 5.29 |
| CC(NC(=O)c1cc(-c2cncs2)cc2[nH]ccc12)c1ccccc1F (stereo not shown) [Example 39, N-(1-(2-fluorophenyl)ethyl)-6-(thiazol-5-yl)-1H-indole-4-carboxamide] | 6.71 |
| O=C(NC1CCNCC1)c1cc(-c2cncs2)cc2[nH]ccc12 [Example 35, N-(piperidin-4-yl)-6-(thiazol-5-yl)-1H-indole-4-carboxamide hydrochloride] | 5.11 |
| COCCO[C@H]1C[C@@H](NC(=O)c2cc(-c3cncs3)cc3[nH]ccc23)C1 [Example 32, N-((1s,3s)-3-(2-methoxyethoxy)cyclobutyl)-6-(thiazol-5-yl)-1H-indole-4-carboxamide] | 5.48 |
| COCCO[C@H]1CC[C@H](NC(=O)c2cc(-c3cncs3)cc3c2ccn3CC(C)(C)O)CC1 [Example 53, 1-(2-hydroxy-2-methylpropyl)-N-((1r,4r)-4-(2-methoxyethoxy)cyclohexyl)-6-(thiazol-5-yl)-1H-indole-4-carboxamide] | 5.52 |

same assay, conditions: 30 min pre-incubation at room temperature, ε-NAD substrate 10 min, excitation 300 nm / emission 410 nm; read-out: hCD38 IC50

| Compound | pIC50 |
| --- | --- |
| COCCO[C@H]1C[C@H](NC(=O)c2cc(-c3cncs3)cc3[nH]ccc23)C1 [Example 30, N-((1r,3r)-3-(2-methoxyethoxy)cyclobutyl)-6-(thiazol-5-yl)-1H-indole-4-carboxamide] | 6.12 |
